Assays:
[1] = in vitro; settings: human
[2] = test system: HCoV-229E; assay: anti-HCoV-229E activity in Huh7 cells by cytopathic effect (CPE) assay; assay type: cell-based, Human coronavirus HCoV-229E; settings: Human coronavirus 229E, Huh-7, HCoV-229E 100 TCID50 in Huh7 cells, about 48 h
[3] = test system: HCoV-229E; assay: N protein level of HCoV-229E in Huh7 cells (Western Blotting); assay type: cell-based, Human coronavirus HCoV-229E; settings: 24 h
[4] = test system: HCoV-229E; assay: anti-HCoV-229E activity in Huh7.5 cells by cytopathic effect (CPE) assay; assay type: cell-based, Human coronavirus HCoV-229E; settings: Human coronavirus 229E, HCoV-229E 100 TCID50 in Huh7.5 cells, about 48 h
[5] = in vitro; settings: human; remark: listed apart in the source
[6] = test system: HCoV-OC43; assay: mRNA level of HCoV-OC43 N protein in C3A cells (RT-qPCR); assay type: cell-based, Human coronavirus HCoV-OC43; settings: MOI=0.023, three concentrations, 24 h
[7] = test system: HCoV-OC43; assay: N protein level of HCoV-OC43 in C3A cells (Western Blotting); assay type: cell-based, Human coronavirus HCoV-OC43; settings: 24 h
Protocol: The viral N protein level was determined after 24 h.
The effect of IMB-C5 and IMB-85 on N protein level of coronavirus HCoV-OC43 was determined. C3A cells were infected at a viral load of MOI=0.037, and simultaneously administered with IMB-C5 (10 μM), IMB-85 (10 μM, 2 μ, 0.4 μM and 0.08 μM) and MNP (the positive control, 15 μM). After 24 h, the protein was extracted for Western blotting.

[8] = test system: HCoV-229E; assay: dsRNA production during replication of HCoV-229E in Huh7 cells (immunofluorescence assay); assay type: cell-based, Human coronavirus HCoV-229E
[9] = test system: HCoV-OC43; assay: time-of-addition experiment, HCoV-OC43 in C3A cells (immunofluorescence assay); assay type: cell-based, Human coronavirus HCoV-OC43; settings: 50 μM
[10] = CCK-8 cytotoxicity assay in Huh7 cells; assay type: cell-based; settings: human, Huh7 hepatocellular carcinoma cells, CCK-8, 48 hours, read-out: TC50
Protocol: (§1) In order to determine the possible cytotoxicity of IMB-C5 and IMB-85, the CCK-8 assay was first used to detect the effect of the two compounds at different concentrations on viability of different cells 48 hours after administration.

[11] = in vitro; settings: African green monkey
[12] = test system: HCoV-229E; assay: mRNA level of HCoV-229E N protein in Huh7 cells (RT-qPCR); assay type: cell-based, Human coronavirus HCoV-229E; settings: 24 h
[13] = test system: HCoV-229E; assay: mRNA level of HCoV-229E N protein in Huh7.5 cells (RT-qPCR); assay type: cell-based, Human coronavirus HCoV-229E; settings: MOI=0.035, three concentrations, 24 h
[14] = from reference [5]; cited from earlier work
[15] = CCK-8 cytotoxicity assay in Huh7.5 cells; assay type: cell-based; settings: human, Huh7.5 hepatocellular carcinoma cells, CCK-8, 48 hours, read-out: TC50
Protocol: as §1

[16] = test system: HCoV-229E; assay: time-of-addition experiment, HCoV-229E in Huh7 cells (Western blotting and immunofluorescence); assay type: cell-based, Human coronavirus HCoV-229E; set-up: dose or concentration left out as unconfirmed
[17] = test system: HCoV-229E; assay: N protein level of HCoV-229E in Huh7.5 cells (Western Blotting); assay type: cell-based, Human coronavirus HCoV-229E; settings: MOI=1, different concentrations, 24 h
[18] = MOI=17, IMB-85 3, 0.6 and 0.12 μM

SMILES	CC50 [1] [µM]	EC50 [2] [µM]	N protein level of HCoV-229E ([3]; MOI=1, 5 μM compound)	EC50 [4] [µM]	CC50 [5] [µM]	other results
Cn1c(=O)c2c(nc(NCCO)n2Cc2cccc(Cl)c2)n(C)c1=O [IMB-2-5, 7-(3-chlorobenzyl)-8-((2-hydroxyethyl)amino)-1,3-dimethyl-3,7-dihydro-1H-purine-2,6-dione]	200	1.33	inhibited HCoV-229E in Huh7 cells to different degrees			
Cn1c(=O)c2c(nc(NCCO)n2Cc2c(F)cccc2F)n(C)c1=O [IMB-93, 7-(2,6-difluorobenzyl)-8-((2-hydroxyethyl)amino)-1,3-dimethyl-3,7-dihydro-1H-purine-2,6-dione]	> 200	2.47	inhibited HCoV-229E in Huh7 cells to different degrees			
COc1cccc(Cn2c(NCCO)nc3c2c(=O)n(C)c(=O)n3C)c1 [IMB-C5]	> 139	6.57		26.8	> 139	mRNA level of HCoV-OC43 N protein [6]: decreased mRNA level of HCoV-OC43 N protein in C3A cells in a dose-dependent manner; N protein level of HCoV-OC43 ([7]; MOI=0.023, three concentrations): inhibited the expression of the viral N protein in a dose-dependent manner; dsRNA production during replication of HCoV-229E ([8]; MOI=0.035, gradient concentrations, 24 h): had an inhibitory effect on dsRNA production; dsRNA production during replication of HCoV-229E ([8]; MOI=17, 24 h): inhibited dsRNA production; antiviral effect, time of addition ([9]; HCoV-OC43 MOI=0.28, administered 1 h to 4 h after infection): better antiviral effect; antiviral effect, time of addition ([9]; HCoV-OC43 MOI=0.28, administered 6 h or more after infection): greatly diminished antiviral effect; antiviral effect, time of addition ([9]; HCoV-OC43 MOI=0.28, administered at the time of virus infection): most significant inhibitory effect on virus; CC50 at 48 h [10]: > 200 µM; CC50 [11]: 493 µM; mRNA level of HCoV-229E N protein ([12]; MOI=0.035, three concentrations): decreased mRNA level of HCoV-229E N protein in both Huh7 and Huh7.5 cells in a dose-dependent manner; mRNA level of HCoV-229E N protein [13]: decreased mRNA level of HCoV-229E N protein in both Huh7 and Huh7.5 cells in a dose-dependent manner; effect on blood lipids and atherosclerotic plaque formation [14]: good effect on lowering blood lipids and inhibiting atherosclerotic plaque formation; CC50 at 48 h [15]: > 200 µM
Cc1ccccc1Cn1c(NCCO)nc2c1c(=O)n(C)c(=O)n2C [IMB-68, 8-((2-hydroxyethyl)amino)-1,3-dimethyl-7-(2-methylbenzyl)-3,7-dihydro-1H-purine-2,6-dione]	200	1.43	inhibited HCoV-229E in Huh7 cells to different degrees			
Cn1c(=O)c2c(nc(NCCO)n2CC2CCOCC2)n(C)c1=O [IMB-3-19, ((2-hydroxyethyl)amino)-1,3-dimethyl-7-((tetrahydro-2H-pyran-4-yl)methyl)-3,7-dihydro-1H-purine-2,6-dione]	> 200	1.88	inhibited HCoV-229E in Huh7 cells to different degrees			
COc1cccc(Cn2c(NC[C@H](C)O)nc3c2c(=O)n(C)c(=O)n3C)c1 [IMB-ZHC-7, (S)-8-((2-hydroxypropyl)amino)-7-(3-methoxybenzyl)-1,3-dimethyl-3,7-dihydro-1H-purine-2,6-dione]	> 134	19.2		44.7	> 134	
Cn1c(=O)c2c(nc(NCCO)n2Cc2cccc(Cl)c2F)n(C)c1=O [IMB-ZHB-4x, 7-(3-chloro-2-fluorobenzyl)-8-((2-hydroxyethyl)amino)-1,3-dimethyl-3,7-dihydro-1H-purine-2,6-dione]	91	3.78		8.42	91	
COc1cccc(Cn2c(NC[C@@H](C)O)nc3c2c(=O)n(C)c(=O)n3C)c1 [IMB-ZHC-6, (R)-8-((2-hydroxypropyl)amino)-7-(3-methoxybenzyl)-1,3-dimethyl-3,7-dihydro-1H-purine-2,6-dione]	> 134	12.6		58.8	> 134	
Cn1c(=O)c2c(nc(NCCO)n2Cc2cccc(OC(F)(F)F)c2)n(C)c1=O [IMB-92, 8-((2-hydroxyethyl)amino)-1,3-dimethyl-7-(3-(trifluoromethoxy)benzyl)-3,7-dihydro-1H-purine-2,6-dione]	144	0.64	inhibited HCoV-229E in Huh7 cells to different degrees			
Cn1c(=O)c2c(nc(NCCO)n2Cc2ccc(C(C)(C)C)cc2)n(C)c1=O [IMB-84, 7-(4-(tert-butyl)benzyl)-8-((2-hydroxyethyl)amino)-1,3-dimethyl-3,7-dihydro-1H-purine-2,6-dione]	> 259	15.4		12.3	> 259	
Cn1c(=O)c2c(nc(NCCO)n2Cc2ccc(Cl)cc2)n(C)c1=O [IMB-2-14]	200	1.43	inhibited HCoV-229E in Huh7 cells to different degrees			
Cn1c(=O)c2c(nc(NCCO)n2Cc2cccc(F)c2F)n(C)c1=O [IMB-82, 7-(2,3-difluorobenzyl)-8-((2-hydroxyethyl)amino)-1,3-dimethyl-3,7-dihydro-1H-purine-2,6-dione]	> 274	30.4		69.3	> 274	
COc1ccc(Cn2c(NCCO)nc3c2c(=O)n(C)c(=O)n3C)cc1 [IMB-88]	> 278	16.5		23.5	> 278	
Cn1c(=O)c2c(nc(NCCO)n2Cc2ccc(OC(F)F)cc2)n(C)c1=O [IMB-2-8, 7-(4-(difluoromethoxy)benzyl)-8-((2-hydroxyethyl)amino)-1,3-dimethyl-3,7-dihydro-1H-purine-2,6-dione]	> 200	2.47	inhibited HCoV-229E in Huh7 cells to different degrees			
CCCCc1ccc(Cn2c(NCCO)nc3c2c(=O)n(C)c(=O)n3C)cc1 [IMB-85, 7-(4-butylbenzyl)-8-((2-hydroxyethyl)amino)-1,3-dimethyl-3,7-dihydro-1H-purine-2,6-dione]		0.09	best activity in decreasing HCoV-229E N protein level	4.05		N protein level of HCoV-OC43 ([7]; MOI=0.037, IMB-85 10, 2, 0.4 and 0.08 μM): decreased the HCoV-OC43 N protein level in C3A cells in a dose-dependent manner; dsRNA production during replication of HCoV-229E ([8]; MOI=17, 24 h): inhibited dsRNA production; CC50 at 48 h [10]: > 200 µM; antiviral effect (N protein and dsRNA level), time of addition ([16]; IMB-85, HCoV-229E MOI=10, administered 6 h or more after infection): diminished antiviral effect; antiviral effect (N protein and dsRNA level), time of addition ([16]; IMB-85, HCoV-229E MOI=10, at the time of infection or within 1-5 h after infection): significant inhibitory effect on virus; N protein level of HCoV-229E ([3]; MOI=1, different concentrations): decreased the HCoV-229E N protein level in Huh7 cells in a dose-dependent manner; protein level of HCoV-229E N protein [3, 18]: decreased mRNA and protein level of HCoV-229E N protein in Huh7 cells in a dose-dependent manner; mRNA level of HCoV-229E N protein [12, 18]: decreased mRNA and protein level of HCoV-229E N protein in Huh7 cells in a dose-dependent manner; CC50 at 48 h [15]: > 200 µM; N protein level of HCoV-229E [17]: decreased the HCoV-229E N protein level in Huh7.5 cells in a dose-dependent manner
CC(C)C(=O)OC[C@H]1O[C@@H](n2ccc(NO)nc2=O)[C@H](O)[C@@H]1O [Molnupiravir, reference compound]	> 200	1.92		4.28	> 200	
COc1cccc(Cn2c(N[C@@H](C)CO)nc3c2c(=O)n(C)c(=O)n3C)c1 [IMB-ZH-2, (S)-8-((1-hydroxypropan-2-yl)amino)-7-(3-methoxybenzyl)-1,3-dimethyl-3,7-dihydro-1H-purine-2,6-dione]	> 134	44.7		82.9	> 134	
